Laboratory results taken from patent publication EP1914304A1 (priority 1998, dated 1999).
Values joined by “and” are separate entries in the source; they are usually repeats but may differ in a detail not shown here. Equal entries are not always repeated.

Experiments:
[1] = target: HSV-1 thymidine kinase mutant TKI 208 (Leu-170 to Val), SEQ ID 23 (codons 165-175) (Human herpesvirus 1, UniProt P06478, L170V); format: biochemical, Herpes Simplex Virus Type 1; conditions: Table I; purified enzyme, 34°C, 10 minutes
HSV-1 thymidine kinase mutant TKI 208 (Leu-170 to Val), SEQ ID 23 (codons 165-175), sequence (P06478 whole entry L170V, looked up): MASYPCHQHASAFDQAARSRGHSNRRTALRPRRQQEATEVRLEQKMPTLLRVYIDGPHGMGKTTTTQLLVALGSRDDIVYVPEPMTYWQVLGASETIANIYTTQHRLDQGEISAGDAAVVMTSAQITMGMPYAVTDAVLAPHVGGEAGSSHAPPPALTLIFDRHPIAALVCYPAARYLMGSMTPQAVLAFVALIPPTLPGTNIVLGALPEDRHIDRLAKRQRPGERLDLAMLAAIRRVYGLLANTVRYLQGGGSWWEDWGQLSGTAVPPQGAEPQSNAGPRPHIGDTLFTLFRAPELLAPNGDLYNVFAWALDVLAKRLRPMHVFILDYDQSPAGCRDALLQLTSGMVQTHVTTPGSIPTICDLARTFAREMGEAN
Method: (§1) Purification of wild-type and mutant TKs was performed by affinity chromatography on CH-Sepharose 4B (Pharmacia) coupled to p-aminophenylthymidine 3'-phosphate. Briefly, crude bacterial extract was passed three times through a 7-mL bed-volume affinity column. The column was then washed sequentially using 30 mL each of buffer A [0.1 M Tris HCl, pH 7.5/5 mM dithiothreitol (DTT)/10% glycerol], buffer B (0.1M Tris-HCl, pH 7.5/0.5 M KCl/5 mM DTT/10% glycerol), and buffer A. TK was eluted using a 60-mL linear gradient of 0-600 µM dT in buffer C (0.3 M Tris HCl, pH 7.4/50 mM KCl/10% glycerol). Active fractions were pooled and dialyzed against three changes each of 2 liters of 50 mM Tris-HCl, pH 7.4/5 mM DTT/10% glycerol. Except in the final dialysis, all the above buffers contained 50 µg/mL of aprotinin and 2 µg/mL each of pepstatin and leupeptin.
(§2) Secondly, the kinetics of AZT phosphorylation by the two mutants was determined. […] (One unit of enzyme is defined as that amount that can phosphorylate 1.0 pmol of dT to TMP in 1 minute under the conditions described above.) Incubation was at 34°C ± 1°C for 10 minutes, and reactions were stopped by adding 1.0 mM unlabeled dT and cooling on ice. Half of the reaction mixtures were pipetted onto a DEAE-cellulose disc (25 mm), dipped in distilled water (1 minute), followed by four washes in absolute ethanol. The amount of radioactivity adsorbed to the disc was determined by scintillation spectroscopy. […] All other components in the reaction mixtures and the incubation conditions were as described above for phosphorylation of AZT.
(§3) All buffers used in the purification of TK contained 5mM DTT, 50 µ/mL aprotinin, 2 µg/mL each of leupeptin and pepstatin and I mM PMSF unless otherwise indicated. […] TK assay was performed on all the fractions and peak TK - fractions were pooled and dialyzed against three changes of 21 of dialysis buffer (50 mM Tris-HCl, pH 7.4, 5 mM DTT, 10% glycerol). In the final dialysis, protease inhibitors were omitted from the buffer and the dialyzed fractions were aliquoted and stored at -70°C. The column was washed thoroughly twice by using the same washing and elution protocols as described above prior to application of each extract preparation.
(§4) Kinetic parameters were determined essentially as described below. […] Incubation was at 34 ± 1°C for 10 minutes. […] Half of the reaction mix was pipetted onto a DEAE-cellulose disc (25 mm) and the disc was dipped in distilled water (1 minute) followed by four washes each in 10 mL of absolute ethanol. The adsorbed products on the disc were counted in a scintillation counter.

[2] = target: HSV-1 thymidine kinase, wild-type (pMCC), SEQ ID 13 (codons 165-175) (Human herpesvirus 1, UniProt P06478); format: biochemical, Herpes Simplex Virus Type 1; conditions: Table I; purified enzyme, 34°C, 10 minutes
HSV-1 thymidine kinase, wild-type (pMCC), SEQ ID 13 (codons 165-175), sequence (P06478 whole entry, looked up): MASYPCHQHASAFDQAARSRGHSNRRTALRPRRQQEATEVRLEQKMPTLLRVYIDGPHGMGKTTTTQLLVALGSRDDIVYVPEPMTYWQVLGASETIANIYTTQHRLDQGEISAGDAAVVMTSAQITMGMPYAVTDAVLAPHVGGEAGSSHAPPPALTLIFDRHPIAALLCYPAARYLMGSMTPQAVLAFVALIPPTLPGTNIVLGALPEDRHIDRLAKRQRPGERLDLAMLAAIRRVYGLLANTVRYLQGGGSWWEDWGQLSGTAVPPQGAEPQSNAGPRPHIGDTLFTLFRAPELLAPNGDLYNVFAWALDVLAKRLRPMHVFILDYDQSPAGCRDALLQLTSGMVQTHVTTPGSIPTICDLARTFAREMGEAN
Method: as §1, §2, §3, §4

[3] = target: T1, HSV-1 thymidine kinase mutant 75 (LIF-ALL library, codons 159-161 and 168-170 randomized; pET23d:75) (Human herpesvirus 1, UniProt P0DTH5); conditions: Table V
T1 sequence (P0DTH5 1-376): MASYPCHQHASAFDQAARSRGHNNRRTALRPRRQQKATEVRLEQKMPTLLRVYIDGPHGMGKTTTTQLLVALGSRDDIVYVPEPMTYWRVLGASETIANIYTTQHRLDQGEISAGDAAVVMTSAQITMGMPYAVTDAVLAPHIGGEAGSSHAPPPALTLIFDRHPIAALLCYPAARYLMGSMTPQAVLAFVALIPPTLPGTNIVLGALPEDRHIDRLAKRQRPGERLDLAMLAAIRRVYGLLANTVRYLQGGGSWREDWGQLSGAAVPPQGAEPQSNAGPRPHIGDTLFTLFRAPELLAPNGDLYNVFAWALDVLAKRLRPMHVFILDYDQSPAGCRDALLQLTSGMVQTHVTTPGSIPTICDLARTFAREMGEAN
Method: The culture is incubated at 37°C overnight. The following day the 5ml culture is used to inoculate 1L M9ZB + cabenicillin at 20µg/ml and the culture allowed to grow at 37°C to OD600 0.1. At that point IPTG is added to 0.4mM and the culture incubated a further 3 hours. The cells are chilled on ice, pelleted by centrifugation and the pellets washed once in cell wash buffer (50mM Tris, pH 7.5, 5mM EDTA, 10% sucrose) prior to freezing the pellets at -70°C. The next day the cells are resuspended in 12ml Buffer 1 (50mM Tris, pH 7.5, 10% sucrose, 2mM DTT, 5mM EDTA, 1mM PMSF) and the volume split into two 13ml Oakridge ultracentrifuge tubes. 1ml Buffer 1 containing 3mg lysozyme is added to each tube and the tubes left on ice for 1 hr. […] The cleared supernatant is then aliquoted and frozen at -70°C.
The 1ml bed volume column is prepared by passing 10ml Buffer 1 followed by 10ml Absorption Buffer (50mM Tris, pH 7.5, 10% sucrose, 2mM DTT, 25mM MgAc2, 10mM ATP) over the column. Two ml of the cleared lysate is mixed with 2 ml of Absorption Buffer and passed through a 0.2µm filter. This mix is passed over the column 3 times. The column is washed with 5ml Absorption buffer three times and the 5ml fractions collected. […] The column is reactivated by loading on 10ml High Salt Buffer (50mM Tris, pH 7.5, 10% sucrose, 2mM DTT, 0.5M KCl) and 10ml 50mM Tris, pH 7.5. The column is stored in 50mM Tris pH 7.5 + 0.004% sodium azide. The extent of purification is monitored by Coomassie stained SDS:PAGE analysis and the concentration of purified protein determined using the BioRad Reagent (Bradford Reagent).
Km and Vmax values are determined from double reciprocal plots and kcat values are calculated using the equation Vmax = kcat [Eo] where [Eo] is the total enzyme concentration. The BioRad reagent was used to determine the total enzyme concentration of purified thymidine kinase enzymes.

[4] = test system: BHK tk- cells transfected with pREP8D7:dualGFP expressing TK mutant SR39; experiment: ACV kill curves of transfectant pools; format: cell-based, baby hamster; conditions: Mesocricetus auratus, Table VII
Description: (§5) The seven mutants were subcloned into the mammalian expression vector, pREP8D7:dualGFP. This vector contains a constitutive metallothionin promoter, which drives the expression of green flourescent protein (GFP), and an RSV LTR promoter, which stimulated expression of the TK mutants. The vector also contains a histidinol resistance gene for selection of transformants. Purified vector DNA of these constructs was used to transfect BHK tk- cells by electroporation. The transfectants were selected by resistance to histidinol and sorted using FACS analysis for GFP expression. Pools of transfectants were then assayed for sensitivity to GCV or ACV over a range of prodrug doses. […] Table VIII illustrates the IC50 values from Rat C6 kill curves with the SR11, SR26, and SR39 mutants.

[5] = test system: BHK tk- cells transfected with pREP8D7:dualGFP expressing TK mutant 75; experiment: ACV kill curves of transfectant pools; format: cell-based, baby hamster; conditions: Mesocricetus auratus, Table VII
Description: as §5

[6] = test system: BHK tk- cells transfected with pREP8D7:dualGFP expressing TK mutant SR11; experiment: ACV kill curves of transfectant pools; format: cell-based, baby hamster; conditions: Mesocricetus auratus, Table VII
Description: as §5

[7] = test system: BHK tk- cells transfected with pREP8D7:dualGFP expressing TK mutant SR26; experiment: ACV kill curves of transfectant pools; format: cell-based, baby hamster; conditions: Mesocricetus auratus, Table VII
Description: as §5

[8] = test system: BHK tk- cells transfected with pREP8D7:dualGFP expressing wild-type TK; experiment: ACV kill curves of transfectant pools; format: cell-based, baby hamster; conditions: Mesocricetus auratus, Table VII
Description: as §5

| Structure (SMILES) | Km [1] [µM] | kcat [1] [s⁻¹] | Km [2] | kcat [2] [s⁻¹] | Km ([3]; double reciprocal plots) [µM] | kcat ([3]; per active site) | IC50 [4] [nM] | IC50 [5] [nM] | IC50 [6] [nM] | IC50 [7] [nM] | IC50 [8] [nM] |
| --- | --- | --- | --- | --- | --- | --- | --- | --- | --- | --- | --- |
| Cc1cn([C@H]2C[C@H](N=[N+]=[N-])[C@@H](CO)O2)c(=O)[nH]c1=O [AZT, 3' azido-3' thymidine] | 4.4 | 0.03 | 8.5 µM and 8.46 µM | 0.036 | – | – | – | – | – | – | – |
| Nc1nc2c(ncn2COCCO)c(=O)[nH]1 [acyclovir] | – | – | – | – | 23 | .010 s⁻¹ | 30 | 60 | 25 | 35 | 200 |
